Experimental data published in patent publication US10786690B2, “Amide derivatives of polycaffeoylquinic acids, process for producing same and uses thereof” (TEMISIS, priority 2016, dated 2020).
Where “and” joins values, the source holds several entries; their conditions need not be identical. Identical values can stand only once.

Columns and labels:
IL-8 = IL-8 production by NHEKs in the inflammatory state (PMA), ELISA; type: cell-based, human; details: PMA 10 ng/ml 24 h, compounds 50 μM, dexamethasone 10 μM, relative to PMA induced control (100%)
Protocol: The study was carried out on Normal Human Epidermal Keratinocytes (NHEKs) (Lonza, CC-2507, origin: foreskin) in monolayer culture in Epilife medium (Invitrogen, M-EPI-500-A) containing the components of the Human Keratinocyte Growth Supplement (HKGS) mixture (Invitrogen, S-001-K) added separately, except hydrocortisone having anti-inflammatory properties.
For the quantification of IL-8 and PGE2, the inflammatory state of the NHEKs in culture was induced by treatment with PMA (phorbol myristate acetate/10 ng/ml/H2O) for 24 h. Induction of IL-6 was achieved by treatment with PMA (10 ng/ml/H2O) combined with calcium ionophore A23187 (2 μM/DMSO) in medium containing calcium at a concentration of 0.8 mM. […]
Quantification of the various inflammatory mediators was carried out with specific kits, based on a standard curve, according to the instructions provided by the kits' suppliers, R&D Systems and Cayman Chemical.
Before induction of the inflammatory state, the NHEKs were treated with the compounds and reference molecules for 2 h. The inflammatory state was then induced according to the conditions described in the methodology section, the culture supernatants were collected, and the various inflammatory mediators were quantified by the ELISA technique. […]

[1] = test system: Normal Human Dermal Fibroblasts (NHDFs); experiment: qRT-PCR gene expression in Normal Human Dermal Fibroblasts; type: cell-based; details: 4 μM, 24 h
Protocol: The study consisted in measuring the effects of compound PAT1657 by qRT-PCR on the expression of 94 genes involved in dermal biology, connective tissue remodelling and ageing.
The protocol consisted in applying compound PAT1657 for 24 h in the culture medium of Normal Human Dermal Fibroblasts (NHDFs) in monolayer and analysing the various RNA populations to identify the genes differentially expressed by real-time qRT-PCR.
The study was carried out on Normal Human Dermal Fibroblasts (NHDFs) (ATCC, CRL-2522, origin: foreskin) at about 40% of their proliferative potential and grown in monolayer in DMEM medium (Invitrogen, 31885-049) containing antibiotics (penicillin/streptomycin, Invitrogen, 15140-122) but not containing serum. The cells were maintained in a humid atmosphere at 37° C. containing 5% CO2.
Compound PAT1657 was applied in the NHDF culture medium for 24 h (n=3). Controls treated with the solvent DMSO (1% for the NHDFs) in which the active agents were prepared were also analysed. At the end of the treatments, total RNA populations were extracted, their integrity was analysed by capillary electrophoresis, and gene expression differences were analysed by qRT-PCR using 96-well TaqMan microfluidic cards (custom produced by Applied Biosystems), targeting key functions of the dermis and epidermis. The technical details of the implementation of the present paragraph are explained in the “Materials and methods” section of Example 1 of patent application FR1650745 and more specifically the sub-section titled “Analysis of gene expression changes” (page 26 line 22 to page 28 line 9).
The gene expression changes induced by the active agents are expressed as relative quantity (RQ) based on the respective DMSO solvent controls.

In the case of `CCCCCCCCNC(=O)[C@]1(O)C[C@@H](OC(=O)/C=C/c2ccc(O)c(O)c2)[C@@H](O)[C@H](OC(=O)/C=C/c2ccc(O)c(O)c2)C1` [PAT1657, (2E,2′E)-((1R,2S,3R,5S)-2,5-dihydroxy-5-(octylcarbamoyl)cyclohexane-1,3-diyl) bis(3-(3,4-dihydroxyphenyl)acrylate)], the IL-8 production (IL-8) is reported as “inhibit/reduce IL-8 production to the baseline level”, the “expression of gene GSS” value ([1]; in words only) is reported as “overexpressed” and the “RQ (relative expression), gene CCL5” value ([1]; relative to 1% DMSO vehicle) is reported as 28.13. The “RQ (relative expression), gene DDIT3” value ([1]; relative to 1% DMSO vehicle) was 2.81, the “RQ (relative expression), gene FTL” value ([1]; relative to 1% DMSO vehicle) was 2.1 and 2.08 and the “RQ (relative expression), gene GADD45A” value ([1]; relative to 1% DMSO vehicle) was 3.68. For the same compound, the “RQ (relative expression), gene KLF4” value ([1]; relative to 1% DMSO vehicle) was 1.9 and 1.93, the “RQ (relative expression), gene MMP1” value ([1]; relative to 1% DMSO vehicle) was 6.9 and 6.91 and the “RQ (relative expression), gene MMP3” value ([1]; relative to 1% DMSO vehicle) was 3.1 and 3.12. For the same compound, the “RQ (relative expression), gene MTNR1A” value ([1]; relative to 1% DMSO vehicle) was 1.46, the “RQ (relative expression), gene NANOG” value ([1]; relative to 1% DMSO vehicle) was 4.7 and 4.67 and the “RQ (relative expression), gene NOX1” value ([1]; relative to 1% DMSO vehicle) was 1.46. The “RQ (relative expression), gene POU5F1” value ([1]; relative to 1% DMSO vehicle) was 5.1, the “RQ (relative expression), gene RBP2” value ([1]; relative to 1% DMSO vehicle) was 1.46 and the “RQ (relative expression), gene RORA” value ([1]; relative to 1% DMSO vehicle) was 4.4 and 4.41. The “RQ (relative expression), gene SIRT1” value ([1]; relative to 1% DMSO vehicle) was 2.02, the “RQ (relative expression), gene SOD2” value ([1]; relative to 1% DMSO vehicle) was 4.7 and 4.66 and the “RQ (relative expression), gene TXNRD1” value ([1]; relative to 1% DMSO vehicle) was 2.8 and 2.82. For the same compound, the “RQ (relative expression), gene VEGFA” value ([1]; relative to 1% DMSO vehicle) was 8.3 and 8.28.
